Data reported in PMC11500008, “Novel quinazolin-4-one based derivatives bearing 1,2,3-triazole and glycoside moieties as potential cytotoxic agents through dual EGFR and VEGFR-2 inhibitory activity” (Scientific Reports, 2024).
Several values for one entry are separate records, joined by “and”; a condition that tells them apart may be missing. Equal entries are not always repeated. Where two headings read alike, the source gives them in different places. Blank lines part the entries; values can stand above or below the molecule they belong to.

Columns and labels:
[1] = test system: MCF-7 cell line; design: method as in PMID 37453330; conditions: cellular activity; read-out: IC50 against MCF-7 cell line; cited from earlier work
[2] = test system: HepG-2 cell line; assay: MTT cytotoxicity assay, HepG-2; format: cell-based; conditions: Homo sapiens, HepG2; HepG-2 liver cancer cells; 48 h incubation; mean of three values; read-out: IC50 (mean±SD) HepG-2
Description: (§1) The recently incorporated quinazolinone-based targets 1–4, 6–13 underwent evaluation for their cytotoxic effects with in vitro employing MTT technique, according to the procedure that has been published[48]–[50], utilizing human fibroblast-derived BJ-1 normal cell line, and human cancer liver HepG-2, breast MCF-7, and colon HCT-116 cell lines. These cell lines were purchased from Karolinska Center, Department of Oncology and Pathology, Karolinska Institute and Hospital, Stockholm, Sweden, There were further details in the supplemental file.
(§2) The cell lines were obtained from Karolinska Center, Department of Oncology and Pathology, Karolinska Institute and Hospital, Stockholm, Sweden as follows: human liver HepG-2, breast MCF-7, and colorectal HCT-116 cancer cell lines and human fibroblast-derived BJ-1 normal cell line. Exponentially, cells were placed in 10^4 cells/ well for 24 h, and then add fresh medium which containing different concentration of the tested sample. Serial two-fold dilution of the tested sample were added using a multichannel pipette. Moreover, all cells were cultivated at 37 °C, 5% CO2 and 95% humidity. Also, incubation of control cells occurred at 37 °C. However, after incubation for 24 h different concentrations of sample (25, 12.5, 6.25 and 3.125 µM) were added and continued the incubation for 48 h, then, add the crystal violet solution 1% to each well for 0.5 h to examine viable cells. Rinse the wells using water until no stain. After that, add 30% glacial acetic acid to all wells with shaking plates on Microplate reader (TECAN, Inc.) to measure the absorbance, using a test wavelength of 490 nm. Besides, compare the treated samples with the control cell. The cytotoxicity was estimated by IC50 in (μM), the concentration that inhibits 50% of growth of cancer cell.

[3] = test system: MCF-7 cell line; assay: MTT cytotoxicity assay, MCF-7; format: cell-based; conditions: Homo sapiens, MCF7; MCF-7 breast cancer cells; 48 h incubation; mean of three values; read-out: IC50 (mean±SD) MCF-7
Description: as §1, §2

[4] = test system: HCT-116 cell line; assay: MTT cytotoxicity assay, HCT-116; format: cell-based; conditions: Homo sapiens; HCT-116 colorectal cancer cells; 48 h incubation; mean of three values; read-out: IC50 (mean±SD) HCT-116
Description: as §1, §2

[5] = test system: BJ-1 normal cell line; assay: MTT cytotoxicity assay, normal BJ-1 fibroblasts (safety profile); format: cell-based; conditions: Homo sapiens; BJ-1 normal fibroblast-derived cells; 48 h incubation; mean of three values; read-out: IC50 (mean±SD) BJ-1
Protocol: […]. The safety profiles of all derivatives were assessed through cytotoxic evaluation using human fibroblast-derived BJ-1 normal cell lines. […].
as §1, §2

[6] = test system: HCT-116 cells; assay: Cell cycle analysis by flow cytometry (PI); format: cell-based, human
Protocol: (§3) The most powerful cytotoxic derivative, quinazolinone-1,2,3-triazole glycoside 13, underwent 24-hour treatment at a dose of 5.40 µM to find out if it caused cell death by the apoptotic pathway in HCT-116 cells. Using annexin-V labeling, flow cytometry was employed to further analyze the cells (Figs. 4, 5 and 6).
(§4) The examination of apoptosis and the interpretation of the cell cycle were described[37] utilizing flow cytometry. HCT-116 cells were treated with quinacolinone-1,2,3-triazole glycoside 13 for a full day, and after that, the cells were cultured at 37 °C. There were more details added to supporting documentation .
(§5) Cell cycle analysis and apoptosis study were carried out using flow cytometry. HCT-116 cells were seeded at 8×10^4 and incubated at 37°C in 5% CO2 overnight. After treatment with the tested compound 10 for 24 h, cell pellets were collected and centrifuged (300 g, 5 min). For cell cycle analysis cell pellets were fixed with 70% ethanol on ice for 15 min and collected again. The pellets were incubated with propidium iodide (PI) staining solution at room temperature for 1 h and analyzed by a Gallios flow cytometer (Beckman Coulter, Brea, CA, USA). Apoptosis detection was carried out by FITC AnnexinV/PI commercial kit (Becton Dickenson, Franklin Lakes, NJ, USA) following the manufacturer protocol. The samples were analyzed by fluorescence-activated cell sorting (FACS) with a Gallios flow cytometer (Beckman Coulter, Brea, CA, USA) within 1 h after staining. Data were analyzed using Kaluza v 1.2 (Beckman Coulter).

[7] = test system: HCT-116 cells; assay: Apoptosis analysis by annexin V-FITC/PI flow cytometry; format: cell-based, human; conditions: 5.40 µM, 24 h
Protocol: as §3, §4, §5

[8] = test system: Bax; assay: Bax level in HCT-116 cells; format: cell-based, human
Description: (§6) The methods previously described for the appealing quinazolinone-1,2,3-triazole glycoside 13 was used to clearly show the levels of p53, Bax, Bcl-2, and in HCT-116 cells.
(§7) The levels of the apoptotic marker Bax and anti-apoptotic marker Bcl-2 were estimated using BIO RAD iScript TM One-Step RT-PCR kit with SYBR® Green. The procedure of the used kit was done according to the manufacturer’s instructions.

[9] = test system: Bcl-2; assay: Bcl-2 level in HCT-116 cells; format: cell-based, human
Description: as §6, §7

[10] = test system: p53; assay: p53 level in HCT-116 cells (ELISA); format: cell-based, human
Protocol: as §6
Human p53 present in HCT-116 cells was determined; using Human p53 ELISA-Kit (CS0070 Sigma) read using spectrophotometer at 450 nm against untreated control cells (negative control) applying the standard protocols of the manufacturers. The samples or standard having human p53 bind to antibodies adsorbed to the microwells. Addition of biotin-conjugated was followed by incubation and addition of dispense of unbound biotin-conjugated streptavidin HRP. Then, the reaction was terminated by adding acid, and the absorbance was measured at 450 nm.

[11] = target: VEGFR-2 (Homo sapiens, UniProt P35968); assay: In vitro VEGFR-2 inhibition assay (ELISA); conditions: read-out: IC50 (mean ± SD) VEGFR-2; average of three values
[12] = target: EGFR (Homo sapiens, UniProt P00533); assay: In vitro EGFR inhibition assay (Kinase-Glo luminescence)
EGFR, sequence (P00533 25-1210): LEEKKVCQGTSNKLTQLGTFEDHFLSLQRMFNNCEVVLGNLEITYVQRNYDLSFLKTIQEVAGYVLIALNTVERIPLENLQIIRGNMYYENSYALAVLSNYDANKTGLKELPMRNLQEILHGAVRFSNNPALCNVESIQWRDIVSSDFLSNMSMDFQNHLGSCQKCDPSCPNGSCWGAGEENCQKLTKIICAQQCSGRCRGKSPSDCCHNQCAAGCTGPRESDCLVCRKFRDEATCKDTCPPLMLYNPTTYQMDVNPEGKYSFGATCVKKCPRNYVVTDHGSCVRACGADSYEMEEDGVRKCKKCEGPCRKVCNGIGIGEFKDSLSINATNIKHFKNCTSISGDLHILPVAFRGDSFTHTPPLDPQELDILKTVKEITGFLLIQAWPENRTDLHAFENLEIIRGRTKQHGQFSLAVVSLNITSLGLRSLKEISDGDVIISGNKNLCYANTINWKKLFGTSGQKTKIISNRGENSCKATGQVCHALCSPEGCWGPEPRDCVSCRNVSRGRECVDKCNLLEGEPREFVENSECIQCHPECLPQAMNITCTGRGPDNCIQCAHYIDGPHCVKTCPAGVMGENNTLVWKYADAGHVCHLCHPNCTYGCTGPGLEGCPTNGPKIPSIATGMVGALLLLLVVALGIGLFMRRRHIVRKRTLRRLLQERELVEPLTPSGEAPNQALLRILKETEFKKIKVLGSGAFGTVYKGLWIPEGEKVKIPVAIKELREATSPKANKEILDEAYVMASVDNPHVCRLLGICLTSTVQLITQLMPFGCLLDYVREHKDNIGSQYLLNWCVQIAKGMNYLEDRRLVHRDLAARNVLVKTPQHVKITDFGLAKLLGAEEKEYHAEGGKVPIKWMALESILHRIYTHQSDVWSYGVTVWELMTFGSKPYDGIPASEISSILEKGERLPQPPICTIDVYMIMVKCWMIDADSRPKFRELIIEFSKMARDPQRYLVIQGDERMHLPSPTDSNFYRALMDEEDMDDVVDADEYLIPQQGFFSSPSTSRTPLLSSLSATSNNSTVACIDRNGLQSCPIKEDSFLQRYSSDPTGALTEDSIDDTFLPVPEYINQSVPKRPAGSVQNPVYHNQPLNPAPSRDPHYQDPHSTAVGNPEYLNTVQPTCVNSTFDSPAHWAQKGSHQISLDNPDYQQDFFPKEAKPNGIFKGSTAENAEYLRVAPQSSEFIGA

VEGFR-2, sequence (P35968 20-1356): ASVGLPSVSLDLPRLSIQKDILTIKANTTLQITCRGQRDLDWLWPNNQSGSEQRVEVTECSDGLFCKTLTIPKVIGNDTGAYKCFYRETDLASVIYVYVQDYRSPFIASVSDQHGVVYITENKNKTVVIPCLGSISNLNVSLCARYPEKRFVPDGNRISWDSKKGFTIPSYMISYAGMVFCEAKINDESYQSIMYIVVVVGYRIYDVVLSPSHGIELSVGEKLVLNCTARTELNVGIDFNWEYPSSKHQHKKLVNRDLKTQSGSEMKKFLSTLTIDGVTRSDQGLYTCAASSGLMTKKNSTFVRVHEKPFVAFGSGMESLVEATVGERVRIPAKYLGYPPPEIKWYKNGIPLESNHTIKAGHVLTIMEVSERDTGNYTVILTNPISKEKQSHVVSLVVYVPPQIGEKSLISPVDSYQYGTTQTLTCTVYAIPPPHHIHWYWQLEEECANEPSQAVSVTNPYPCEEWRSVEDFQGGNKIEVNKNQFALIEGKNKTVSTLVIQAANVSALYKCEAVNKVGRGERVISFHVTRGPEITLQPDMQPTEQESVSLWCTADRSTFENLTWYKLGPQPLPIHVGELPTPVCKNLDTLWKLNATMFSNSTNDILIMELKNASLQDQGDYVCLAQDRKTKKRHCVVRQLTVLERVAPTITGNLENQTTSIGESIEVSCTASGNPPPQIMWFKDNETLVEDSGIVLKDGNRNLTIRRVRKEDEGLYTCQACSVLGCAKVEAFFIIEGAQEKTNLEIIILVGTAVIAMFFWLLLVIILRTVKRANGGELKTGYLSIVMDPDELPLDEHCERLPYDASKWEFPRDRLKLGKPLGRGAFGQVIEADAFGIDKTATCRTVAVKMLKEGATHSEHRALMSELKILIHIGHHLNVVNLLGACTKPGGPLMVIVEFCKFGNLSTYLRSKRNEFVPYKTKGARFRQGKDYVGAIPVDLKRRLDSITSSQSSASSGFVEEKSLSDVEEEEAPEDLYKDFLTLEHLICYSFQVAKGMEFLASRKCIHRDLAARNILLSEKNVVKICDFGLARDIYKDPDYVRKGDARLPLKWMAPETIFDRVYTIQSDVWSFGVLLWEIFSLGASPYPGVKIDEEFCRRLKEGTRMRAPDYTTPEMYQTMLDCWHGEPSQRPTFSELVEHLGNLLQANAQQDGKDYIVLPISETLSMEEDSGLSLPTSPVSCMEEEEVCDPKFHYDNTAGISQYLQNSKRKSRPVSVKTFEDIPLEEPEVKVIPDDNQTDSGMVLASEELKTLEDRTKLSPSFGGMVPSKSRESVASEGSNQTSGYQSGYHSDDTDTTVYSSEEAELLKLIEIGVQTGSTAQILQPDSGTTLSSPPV

SMILES: COc1ccc(Cc2nnc(COc3ncnc4ccccc34)o2)cc1OC [IV]
IC50 [1]: 0.23 µM

IC50 [11]: 3.2 ± 0.15 µM | IC50 [12]: 0.31 ± 0.06 µM
SMILES: Cn1c(SCc2cn([C@@H]3OC[C@@H](O)[C@H](O)[C@H]3O)nn2)nc2ccccc2c1=O [Compound 13, 2-(((1-[β-D-Xylopyranosyl]-1 H-1,2,3-triazol-4-yl)methyl)thio)-3-methylquinazolin-4(3 H)-one]
IC50 [2]: 18.2 ± 2.2 µM | IC50 [3]: 7.9 ± 0.3 µM | IC50 [4]: 5.4 µM | IC50 [5]: 23.5 ± 2.3 µM | stage of cell cycle arrest [6]: G1 stage | %G2/M ([6]; 5.40 µM, 24-hour treatment (Table S2 title: 48 h), control 13.24): 9.43% | %S ([6]; 5.40 µM, 24-hour treatment (Table S2 title: 48 h), control 32.81): 22.46% | %G0-G1 ([6]; 5.40 µM, 24-hour treatment (Table S2 title: 48 h), control 53.95): 68.11% | Apoptosis Late ([7]; DMSO control 0.14): 25.36% | Apoptosis Early ([7]; DMSO control 0.55): 7.42% | Necrosis ([7]; DMSO control 1.35): 3.53% | Bax/Bcl-2 ([8]; 24-hour treatment at 5.40 µM, control 4.53): 72.83 | Bax ([8]; 24-hour treatment at IC50 5.40 µM, control 33.85): 229.40 pg/mL and 229.40 ± 1.62 pg/mL | improvement in Bax values versus untreated control ([8]; 24 h, 5.40 µM): 6.8 fold | Bcl-2 ([9]; 24-hour treatment at IC50 5.40 µM, control 7.48): 3.15 ng/mL and 3.15 ± 0.22 ng/mL | reduction of Bcl-2 protein levels versus control ([9]; 24 h, 5.40 µM): ~2.4 times | P53 ([10]; 24-hour treatment at IC50 5.40 µM, control 139.65): 885.72 pg/mL and 885.72 ± 1.49 pg/mL | enhancement of p53 protein levels versus control ([10]; 24 h, 5.40 µM): 6.3 times

melting point: 146 to 148 °C | IC50 [11]: 30.6 ± 0.32 µM | IC50 [12]: 23.05 ± 0.08 µM
SMILES: CC(=O)O[C@@H]1[C@@H](OC(C)=O)[C@H](OC(C)=O)CO[C@H]1n1cc(CSc2nc3ccccc3c(=O)n2C)nn1 [Compound 9, 2-(((1-[2,3,4-tri-O-acetyl-β-D-xylopyranosyl]-1 H-1,2,3-triazol-4-yl)methyl)thio)-3-methylquinazolin-4(3 H)-one]
IC50 [2]: 22.9 ± 2.3 µM | IC50 [3]: 12.6 ± 1.3 µM | IC50 [4]: 3.2 ± 0.2 µM | IC50 [5]: > 25 µM
